Experiment [1] has as its system orthotopic 4T1 breast tumors. The experiment can be described thus: Spontaneous lung metastasis model: tumor volume and pulmonary metastatic nodules. Format: in vivo, female BALB/c mice. Here is the method: For the in vivo investigation of pulmonary metastasis, 4T1 cells (1 × 10^6 cells) were injected into the third mammary fat pad of female BALB/c mice (6–8 weeks). […] Tumor volumes were recorded every other day. On day 28, lungs were harvested and fixed with Bouin’s solutions. The pulmonary metastatic nodules were counted and analyzed by hematoxylin-eosin staining.

Experiment [2] concerns orthotopic 4T1 breast tumors. The experiment can be described thus: Tumor-infiltrating CD8+ T lymphocytes, Tregs and MDSCs (flow cytometry). It counts as in vivo, female BALB/c mice. Conditions: for CD3+CD8+ T cells (%) in tumor / CD11b+Gr1+ MDSCs (%) in tumor / Tregs (%) in CD4+ T cells: Supplementary Fig. 16b. Here is the method: 4T1 cells (1 × 10^6 cells) were injected into the third mammary fat pad of female BALB/c mice (6–8-week). When tumor volumes reached nearly […] on day 7 after tumor inoculation, mice were randomly divided into 8 groups (n = 8 per group). For four groups without laser irradiation (−), mice were intravenously injected with the following samples: (1) saline on day 7, 14, 21, and 28, (2) P-PS on day 7, 14, 21, and 28, (3) P-BS-PS on day 7, 14, 21, and 28, or (4) P-BS-CM1 on day 7, 14, 21, and 28, followed by P-PS-CM2 on day 8, 15, 22, and 29 (5 mg/kg BS equivalence, CM1:CM2 1:1 mol%, 2.5 mg/kg PS equivalence), respectively. For four groups with laser irradiation (+), mice were treated with the same regimens and irradiated at 650 nm laser (580 mW/cm^2, 5 min) on day 9, 16, 23 and 30. Tumor volumes and mice survivals were recorded every other day. For the investigation of immune response and lung metastasis, 4T1 tumor-bearing female BALB/c mice (6–8-week, tumor volume~100 mm^3) were randomly divided into 8 groups (n = 5 per group) and given three rounds of above treatments. On day 28, lungs and tumors were harvested. lungs were fixed with Bouin’s solution. The pulmonary metastatic nodules were counted and analyzed by hematoxylin-eosin staining. Single-cell suspensions of tumor tissues were stained with anti-CD45-PerCP/Cy5.5 (1:300 dilution) and anti-calreticulin recombinant rabbit monoclonal antibody (1:500 dilution) at 4 °C for 1 h, and then stained with goat anti-rabbit IgG H&L Alexa Fluor® 647 (1:1000 dilution, 4 °C, 45 min), followed by flow cytometry analysis. ATP and HMGB1 concentrations in the supernatant of cell suspension were measured using a luciferase-based ATP assay kit and a mouse HMGB1 ELISA kit, respectively. Single-cell suspensions of tumors were stained with FITC anti-mouse CD3 antibody (1:300 dilution), PerCP/Cyanine5.5 anti-mouse CD4 antibody (1:300 dilution), anti-CD8α-APC (1:300 dilution), and anti-Foxp3-PE (1:300 dilution) for flow cytometry analysis of T cell subtypes (CD8^+ T cells, CD4^+ effector T cells, and Foxp3^+ regulatory T cells), and stained with PE anti-mouse/human CD11b antibody (1:300 dilution) and FITC anti-mouse Ly-6G/Ly-6C (Gr-1) antibody (1:300 dilution) for flow cytometry analysis of MDSCs (CD11b^+Gr1^+). Cytotoxic T cells in tumor tissues were investigated with immunofluorescent staining of IFN-γ and flow cytometry analysis using anti-IFN-γ-PE (1:300 dilution). For CD8-depletion assay, 4T1 tumor-bearing female BALB/c mice (6–8-week, tumor volume~100 mm^3) were randomly divided into 3 groups (n = 8 per group). Mice were intravenously given four doses of P-BS-CM1 on day 7, 14, 21 and 28, combined with P-PS-CM2 on day 8, 15, 22 and 29 (5 mg/kg BS equivalence, CM1:CM2 1:1 mol%, 2.5 mg/kg PS equivalence) in the presence or absence of InvivoMab anti-mouse CD8α (100 μg/mice). Mice were irradiated at 650 nm laser (580 mW/cm^2, 5 min) on day 9, 16, 23 and 30. Tumor volumes and mice survivals were recorded every other day.
Background: Flow cytometry measures light scatter and fluorescence of single cells or particles in a stream.

A further experiment addresses T1, CXCR4 (Mus musculus, UniProt P70658).
T1 construct: endogenous in cells; host or cells: 4T1 murine breast cancer cells
Description: Dose-dependent chemokine receptor occupation assay. Conditions: 4T1 cells, 0.1 nM to 1 mM, 25 °C, 1 h; unoccupied receptor stained with PE antibody. Format: binding, 4T1 murine cells. Here is the method: (§1) To validate the specificity of the BS (CXCR4-binding sequence) to CXCR4, a dose-dependent chemokine receptors occupation assay and a chemokine receptors competitive binding assay were conducted. […] Unoccupied chemokine receptors (CXCR4, CXCR7, CXCR2, CXCR5, and CCR4) on cell surface were stained with PE anti-human CD184/CXCR4 Antibody (1:300 dilution), anti-CXCR7-PE (1:300 dilution), anti-CXCR2-PE (1:300 dilution), anti-CXCR5-PE (1:300 dilution), and PE anti-human CD194/CCR4 Antibody (1:300 dilution) at 4 °C for 1 h, prior to flow cytometry analysis. In the chemokine receptors competitive binding assay, 4T1 cells (5 × 10^5 cells) were pre-blocked with PE anti-human CD184/CXCR4 Antibody (1:300 dilution), anti-CXCR7-PE (1:300 dilution), anti-CXCR2-PE (1:300 dilution), anti-CXCR5-PE (1:300 dilution), and PE anti-human CD194/CCR4 Antibody (1:300 dilution) at 4 °C for 1 h. Subsequently, these cells were treated with P-Cy5-BS-CM1-Cy5 (5 nM Cy5 equivalence) for 1 h. Following the treatments, cells were washed three times with PBS and subjected to flow cytometry analysis.

Another experiment has as its target T2, CXCR7 (Mus musculus, UniProt P56485).
T2 construct: endogenous in cells; host or cells: 4T1 murine breast cancer cells
The experiment can be described thus: Dose-dependent chemokine receptor occupation assay. It counts as binding, 4T1 murine cells. The conditions noted are these: 4T1 cells, 0.1 nM to 1 mM, 1 h. Here is the method: as §1

For experiment [3], the target named is T3, Cy5-labeled P-BS-CM1 (P-BS-CM1-Cy5) (cysteines embedded within BS joined to maleimides of the HPMA copolymer backbone (thiol-ene click chemistry) | N-terminal cysteine joined to a maleimide of the HPMA copolymer backbone (thiol-ene …)).
T3 construct: copies: 6 + 4
T3 chain 1: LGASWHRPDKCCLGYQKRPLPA
T3 chain 2: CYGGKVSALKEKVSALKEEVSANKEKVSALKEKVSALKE
Description: FRET or BRET. The conditions noted are these: both partners purified. Background: Bioluminescence resonance energy transfer reports proximity on the nanometre scale.

Another experiment concerns the target T4, Nanothread-1 (P-BS-CM1) (not fully specified; cysteines embedded within BS joined to maleimides of the HPMA copolymer backbone (thiol-ene click chemistry) | N-terminal cysteine joined to a maleimide of the HPMA copolymer …).
T4 construct: source: synthetic peptides grafted on HPMA copolymer (P-Mal), dialysis and lyophilization; copies: 6 + 4
T4 chain 1: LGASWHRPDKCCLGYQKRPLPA
T4 chain 2: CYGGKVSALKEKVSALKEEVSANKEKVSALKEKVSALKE
Description: circular dichroism; P-BS-CM1, P-CM2 and their mixtures (CM1:CM2 3:1, 1:1, 1:3), total polymer 10 mg/mL, 10 mM PBS pH 7.4, 25 °C, 10 min. Conditions: both partners purified. On the technique in general: Circular dichroism is widely used to follow secondary structure.

Ends that are not written are not given here.

T2 sequence (P56485 whole entry): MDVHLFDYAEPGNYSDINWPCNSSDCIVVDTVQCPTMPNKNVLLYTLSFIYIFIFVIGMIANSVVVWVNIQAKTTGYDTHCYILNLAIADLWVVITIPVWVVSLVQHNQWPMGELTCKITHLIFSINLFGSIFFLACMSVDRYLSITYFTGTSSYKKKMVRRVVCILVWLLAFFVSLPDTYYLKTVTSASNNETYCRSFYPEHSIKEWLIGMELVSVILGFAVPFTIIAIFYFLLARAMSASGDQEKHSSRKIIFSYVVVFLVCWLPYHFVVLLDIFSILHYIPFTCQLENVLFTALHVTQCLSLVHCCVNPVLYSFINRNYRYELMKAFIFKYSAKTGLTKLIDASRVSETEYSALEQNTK
T1 sequence (P70658 whole entry): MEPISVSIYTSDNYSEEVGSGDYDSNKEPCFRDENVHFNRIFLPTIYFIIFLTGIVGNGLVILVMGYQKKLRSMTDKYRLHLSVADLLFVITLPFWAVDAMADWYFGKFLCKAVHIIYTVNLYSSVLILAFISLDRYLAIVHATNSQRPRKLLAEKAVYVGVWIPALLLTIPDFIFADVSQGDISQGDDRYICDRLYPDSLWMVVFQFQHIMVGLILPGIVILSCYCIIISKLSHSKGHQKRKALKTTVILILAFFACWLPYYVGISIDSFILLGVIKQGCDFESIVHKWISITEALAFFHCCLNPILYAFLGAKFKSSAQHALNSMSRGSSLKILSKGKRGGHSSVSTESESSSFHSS

`c1cc(CN2CCCNCCNCCCNCC2)ccc1CN1CCCNCCNCCCNCC1` [AMD3100, reference compound]: the “Number of metastatic nodules” value in experiment [1] (2mg/kg, replicate 1) came out at 31; in experiment [1] (2mg/kg, replicate 2), 32; in experiment [1] (2mg/kg, replicate 3), 20; in experiment [1] (2mg/kg, replicate 4), 20; in experiment [1] (2mg/kg, replicate 5), 18; in experiment [1] (5mg/kg, replicate 1) it was 12. Besides, the “Number of metastatic nodules” value in experiment [1] (5mg/kg, replicate 2) turned out to be 14; in experiment [1] (5mg/kg, replicate 3), 15; in experiment [1] (5mg/kg, replicate 4), 9; in experiment [1] (5mg/kg, replicate 5), 12. In experiment [1] (nanothreads weekly i.v. x3, AMD3100 i.p. daily 2 or 5 mg/kg day 7-27), the primary tumor growth result is listed as “dose-dependent anti-tumor activity”. The “CD3+CD8+ T cells (%) in tumor” value is 0.1606% in experiment [2] (2 mg/kg, replicate 1 of 5); 0.2296% in experiment [2] (2 mg/kg, replicate 2 of 5); 0.134% in experiment [2] (2 mg/kg, replicate 3 of 5); 0.1643% in experiment [2] (2 mg/kg, replicate 4 of 5); 0.1515% in experiment [2] (2 mg/kg, replicate 5 of 5); 0.2311% in experiment [2] (5 mg/kg, replicate 1 of 5). For the same molecule, the “CD3+CD8+ T cells (%) in tumor” value was found to be 0.1528% in experiment [2] (5 mg/kg, replicate 2 of 5); 0.1403% in experiment [2] (5 mg/kg, replicate 3 of 5); 0.2195% in experiment [2] (5 mg/kg, replicate 4 of 5); 0.1508% in experiment [2] (5 mg/kg, replicate 5 of 5). Further, the “CD11b+Gr1+ MDSCs (%) in tumor” value in experiment [2] (2 mg/kg, replicate 1 of 5) is given as 22.12%; in experiment [2] (2 mg/kg, replicate 2 of 5), 21.04%; in experiment [2] (2 mg/kg, replicate 3 of 5), 19.16%; in experiment [2] (2 mg/kg, replicate 4 of 5), 20.68%; in experiment [2] (2 mg/kg, replicate 5 of 5) it was 18.7%; in experiment [2] (5 mg/kg, replicate 1 of 5), 16.63%. Further, the “CD11b+Gr1+ MDSCs (%) in tumor” value in experiment [2] (5 mg/kg, replicate 2 of 5) came out at 14.04%; in experiment [2] (5 mg/kg, replicate 3 of 5), 15.32%; in experiment [2] (5 mg/kg, replicate 4 of 5) it was 14.1%; in experiment [2] (5 mg/kg, replicate 5 of 5), 16%. For the same molecule, the “Tregs (%) in CD4+ T cells” value in experiment [2] (2 mg/kg, replicate 1 of 5) is listed as 12.05%; in experiment [2] (2 mg/kg, replicate 2 of 5), 13.02%; in experiment [2] (2 mg/kg, replicate 3 of 5), 16.28%; in experiment [2] (2 mg/kg, replicate 4 of 5), 11.04%; in experiment [2] (2 mg/kg, replicate 5 of 5), 18.84%; in experiment [2] (5 mg/kg, replicate 1 of 5), 7.21%. The “Tregs (%) in CD4+ T cells” value in experiment [2] (5 mg/kg, replicate 2 of 5) worked out at 6.69%; in experiment [2] (5 mg/kg, replicate 3 of 5), 12.48%; in experiment [2] (5 mg/kg, replicate 4 of 5), 10.38%; in experiment [2] (5 mg/kg, replicate 5 of 5) it was 8.46%. In addition, the “tumor-infiltrating CD8+ T cells” value in experiment [2] (day 28, AMD3100 i.p. daily 2 or 5 mg/kg, nanothreads weekly i.v.) was “remained low”. Besides, the CXCR4 occupation entry on CXCR4 is on record as “occupied CXCR4”. Further, the CXCR7 occupation result at CXCR7 is “low affinity”.
C(HPMA copolymer)YGGEVSALEKEVSALEKKNSALEKEVSALEKEVSALEK (other, also: Cy3 label on conjugate, position not given here, copies: 12) [Cy3-labeled P-CM2 (P-CM2-Cy3)]: in experiment [3], the binding result was “binds”.

B1: HPMA copolymer-CM2 conjugate (P-CM2) (other)
peptide: CYGGEVSALEKEVSALEKKNSALEKEVSALEKEVSALEK
modifications: not fully specified (residue 1)
notes: source: synthetic peptide grafted on HPMA copolymer (P-Mal), dialysis and lyophilization; copies: 12
In the case of B1, the binding result with Nanothread-1 (P-BS-CM1) is reported as “binds”.

Values taken from PMC10980815, “Cell surface patching via CXCR4-targeted nanothreads for cancer metastasis inhibition” (Nature Communications, 2024).
